From patent publication US12161726B2, “Biomimetic vesicles and uses thereof” (Ohio State Innovation Foundation, priority 2018, dated 2024)

Experiments:
human umbilical vein ECs = settings: cited from earlier work
restenosis = settings: rat model, earlier study (ref 5); cited from earlier work
[1] = Drug loading level (HPLC / UV-Vis); type: physicochemical; settings: drug loaded into nanoclusters
Protocol: (d). Characterizations. 1H NMR spectra of all polymer products were recorded on a Varian Mercury Plus 300 spectrometer in DMSO-d6 or CDCl3 at 25° C. Molecular weights (Mn and Mw) and polydispersity indices (PDI) of the polymers were determined by a gel permeation chrornatographer (GPC) equipped with a refractive index detector, a viscometer detector, and a light scattering detector (Viscotek, USA), DMF with 0.01 M of LiBr was used as the mobile phase with. Fourier transform infrared (FT-IR) spectra were recorded on a Bruker Tensor 27 FT-IR spectrometer. The sizes and morphologies of the NPs were studied by dynamic light scattering (DLS, ZetaSizer Nano ZS90, Malvern Instruments, USA) and transmission electron microscopy (TEM, FEI Tecnai G2 F30 TWIN 300 KV, E.A, Fischione Instruments, Inc. USA). The zeta potentials were measured by ZetaSizer Nano ZS90 (Malvern Instruments, USA). The rapamycin loading level was measured by high-performance liquid chromatography (HPLC) using ultraviolet (UV) detection at 278 nm. The JQ1 loading level was measured by UV-Vis spectrometer at 323 nm.

[2] = test system: pro-inflammatory activation of ECs and monocyte recruiting; settings: hypercholesterolemic murine model of atherosclerosis; cited from earlier work
[3] = In vitro drug release in PBS (dialysis bag); type: physicochemical; settings: from drug-loaded biomimetic nanoclusters, PBS pH 7.4, 37° C
Protocol: The in vitro drug release profiles from both rapamycin-loaded and JQ1-loaded biomimetic nanoclusters were studied in PBS (pH=7.4) (19). Briefly, drug-loaded biomimetic nanoclusters in the PBS (1 mg/mL, 5 mL) were enclosed in a cellulose membrane dialysis bag (molecular weight cut-off, 8 kDa). The dialysis bags were immersed in 100 mL of PBS, which was then kept in a horizontal laboratory shaker (100 rpm) at 37° C. At predetermined time intervals, 5 mL samples were collected and replaced with the same volume of PBS. The amounts of rapamycin and JQ1 in the collected samples were measured by HPLC and UV-Vis spectrometer, respectively, as indicated above.

[4] = test system: neointimal hyperplasia (IH) in balloon-injured carotid arteries; assay: Morphometric analysis of neointima after carotid artery balloon angioplasty; type: in vivo, rat; settings: two i.v. injections (day 0 and 4), 14 days after angioplasty
Protocol: Materials and Methods: Rat carotid artery balloon angioplasty. Carotid artery balloon angioplasty was performed in male Sprague-Dawley rats (Charles River; about 400 g) as previously described (5, 20). Briefly, rats were anesthetized with isoflurane (5% for inducing and 2.5% for maintaining anesthesia). A longitudinal incision was made in the neck and carotid arteries were exposed. A 2-F balloon catheter (Edwards Lifesciences, Irvine, CA) was inserted through an arteriotomy on the left external carotid artery. To produce arterial injury, the balloon was inflated at a pressure of 2 atm and withdrawn to the carotid bifurcation and this action was repeated three times. The external carotid artery was then permanently ligated, and blood flow was resumed. Drug-loaded biomimetic nanoclusters or compound solutions were injected via rat tail vein. […]
Materials and Methods: Morphometric analysis of neointima. […] Planimetric parameters as follows were measured on the sections and calculated using Image J: area inside external elastic lamina (EEL area), area inside internal elastic lamina (IEL area), lumen area, intima area (=IEL area−lumen area), and media area (=EEL area−IEL area). Intimal hyperplasia was quantified as a ratio of intima area versus media area. […] The means from all the animals in each treatment group were then averaged, and the standard error of the mean (SEM) was calculated. […]

In the case of `Cc1sc2c(c1C)C(c1ccc(Cl)cc1)=N[C@@H](CC(=O)OC(C)(C)C)c1nnc(C)n1-2` [JQ1], the “TNFα-induced pathogenic EC activation (E-selectin, VCAM1, NF-κB translocation)” value (human umbilical vein ECs) is given as “inhibits TNFα-induced pathogenic EC activation”, the Inhibition of restenosis (restenosis) is given as “effective inhibitor of restenosis” and the Drug loading level [1] is given as 21.5%. The “Pro-inflammatory activation of ECs and monocyte recruiting in vivo” value [2] was “inhibitory effects”, the “In vitro drug release profile” value [3] was “released in a sustainable manner without a burst release” and the “Effect on IH (I/M ratio)” value [4] was “failed to mitigate IH”.
